Tests used:
[1] = tested on: rat aortic smooth muscle cells; experiment: Proliferation assay, smooth muscle cells; format: cell-based; settings: 0-200 μM, 24 h
Method: (§1) Proliferation assay: Proliferation of rat aortic endothelial cells (RAECs) and rat aortic smooth muscle cells (isolated from rats at animal unit at Sussex University) was evaluated using Trypan Blue exclusion test. Cells were seeded in 96 well plates at a seeding density of 1×10^4 cells/mL (0.15 mL/well). After 24 h, cells where treated with or without different concentrations of 2 HIF-1 inducers; DMOG and BIQ (0-200 μM). After another 24 hours, Trypan Blue was added and the cells that were stained (dead) and unstained (live) were counted. Results were expressed as number of cells/mL.

[2] = tested on: rat aortic endothelial cells (RAECs); experiment: Proliferation assay, endothelial cells; format: cell-based; settings: 24 h; for proliferation of rat aortic endothelial cells: 100 μM (0.1 mM); for optimum concentration for enhancing proliferation of rat aortic endothelial cells: tested 0-200 μM
Method: as §1

[3] = tested on: human fibroblasts; experiment: Scratch assay, skin injury model, fibroblasts; format: cell-based; settings: agent alone (DMOG 100 μM or EPO 1 ng/ml), 3% serum, 21% oxygen, vs untreated cells
Method: (§2) An in vitro injury model using cells relevant to wound injury were used. Two different cell lines; human keratinocytes (HaCaT) and human fibroblasts were used as skin injury models.
(§3) Scratch assay: As described in example 3, the reparative effect of EPO (1 ng/mL) and DMOG (100 uM) were tested alone or in combination on HaCaT and fibroblasts incubated in cell culture medium (Dulbeccos cell culture medium) containing 3% serum in 21% oxygen for 24 h.

[4] = tested on: rat carotid artery; experiment: Balloon catheter injury (angioplasty) model, endothelial regrowth by Evan's blue staining; format: in vivo, Sprague Dawley rats; settings: DMOG 5 mg/Kg alone, local hydrogel, 5 days after injury
Description: (§4) Angioplasty model: Balloon catheter injury (angioplasty) was the model used as an in vivo injury model using Sprague Dawley rats (450 g). Animals were anesthetized using 2% isoflurane where the rats were placed in a supine position. The right carotid artery was exposed and a (2F Fogarty catheter) was used to cause injury. The catheter was inserted into the common carotid artery via the external carotid to cause complete removal of the vascular endothelium from the common carotid artery down to its junction with the aortic arch. DMOG (5 mg/Kg) and EPO (100 ug/Kg) were administered either alone or in combination in the form of a hydrogel (30% w/v pluronic F127 gel) and applied to the artery after injury. Endothelial regrowth was then assessed using Evan's blue staining (injected IV in the tail vein 30 min before culling the animal) 0 and 5 days after injury to assess the area of de-endothelialised surface; re-endothelialised regions remain unstained. Images of stained arteries were quantified using Image J software.

[5] = tested on: HIF-1; experiment: HIF-1 protein levels in cell lysates by ELISA; format: cell-based, rat; settings: 100 μM, 18 h, 21% O2; reaches level similar to cells at 1% oxygen
Method: (§5) Cell culture: Rat aortic endothelial cells (RAECs) were seeded into 24-well plates and cultured until ˜80% confluent after which they were incubated with or without DMOG for 18 h at normal oxygen levels (21% O2). Cells incubated at 1% O2 where used as a positive control for HIF-1.
Enzyme linked immunosorbent assay (ELISA): HIF-1 protein levels were measured using ELISA. Treated cells were lysed in 80 μL lysis buffer (25 mmol/L Tris HCl pH 7. 6, 0.1% SDS, deoxycholate, 1% NP40, 0.5 mol/L EDTA, 40 mmol/L EGTA and protease inhibitors). Lysates were then centrifuged at 11,000 g for 15 min at 4° C. and the supernatant was collected. Protein concentrations were quantified using a BCA reagent kit (Pierce Biotechnology). HIF was measured using an ELISA kit (R&D systems and biotechne, UK) and expressed as pg/mg protein.
Similar to the methods described in example 2, HIF-1 protein expression and VEGF gene expression were quantitatively measured in vitro using ELISA and real time qPCR respectively using different the different HIF-1 inducers at different concentrations (0-500 uM).

[6] = tested on: HIF-1; experiment: HIF-1 in plasma by ELISA after local application on carotid artery; format: in vivo, Sprague Dawley rats; settings: 24 h
Method: (§6) Male animal study: Sprague Dawley rats (450 g) were used in this study. Animals were anesthetized using 2% isoflurane where the rats were placed in a supine position. The right carotid artery was exposed and DMOG was applied locally at different concentrations (0-7.5 mg/Kg) on the artery using pluronic gel (30% w/w). 3 rats were used in each concentration group.
ELISA: After 24 h, blood was taken from the rat's tail in tubes containing EDTA as an anti-coagulant. Blood was kept on ice and centrifuged to separate the plasma which was immediately treated with a protease inhibitor. HIF-1 was quantified in the collected plasma using the ELISA assay as described in example 2. After 24 h, treated animals were culled and both the right (treated) and left (untreated) carotid arteries were isolated and snap frozen for further analysis.

[7] = tested on: vascular endothelial growth factor (VEGF); experiment: VEGF gene expression in carotid artery by qPCR after local application; format: in vivo, Sprague Dawley rats; settings: 24 h
Method: as §6
Real time qPCR: RNA was extracted and purified from the frozen artery sections using TRIzol (Invitrogen, Life Technologies). RNA quality and concentrations were determined using a NanoDrop ND-1000 (NanoDrop Technologies). Reverse transcription and real-time quantitative PCR (qPCR) were carried out on RNA samples for VEGF and β2-microglobulin as described in example 2.

[8] = tested on: human keratinocytes (HaCaT); experiment: Scratch assay, skin injury model, keratinocytes; format: cell-based; settings: agent alone (DMOG 100 μM or EPO 1 ng/ml), 3% serum, 21% oxygen, vs untreated cells
Method: as §2, §3

[9] = tested on: HIF-1; experiment: HIF-1 in plasma by ELISA post balloon injury; format: in vivo, Sprague Dawley rats; settings: DMOG 5 mg/Kg local hydrogel, 24 h post injury
Description: as §4
ELISA: Blood was collected from venous tail at 0, 1 and 5 days post injury. Plasma was separated and used for quantitative measurement of HIF-1 using ELISA method as described earlier.

[10] = tested on: vascular endothelial growth factor (VEGF); experiment: VEGF gene expression by real time qPCR in RAECs; format: cell-based, rat; settings: 100 μM, 18 h, 21% O2; reaches level similar to cells at 1% oxygen
Method: as §5
Real time qPCR: The gene expression of vascular endothelial growth factor (VEGF), a HIF-1 target gene, was analysed by quantitative polymerase chain reaction (qPCR). Cells were lysed using TRIzol (Invitrogen, Life Technologies) and RNA was then extracted and purified. RNA quality and concentration were determined using a NanoDrop ND-1000 (NanoDrop Technologies). Reverse transcription and real-time quantitative PCR (qPCR) were carried out on RNA samples for VEGF and β2-microglobulin (a housekeeping gene not affected by change in oxygen levels), using TaqMan gene expression assays (Applied Biosystems/Life Technologies). For gene expression quantification, the comparative threshold cycle (ΔΔCT) method was used following manufacturer's guide-lines. Results were normalized to β2-microglobulin expression and expressed as arbitrary units using one of the normoxic untreated samples as a calibrator. […]

[11] = tested on: rat aortic endothelial cells (RAECs); experiment: Scratch assay (in vitro injury model), wound closure; format: cell-based; settings: HIF-1 inducer 100 μM alone, 21% oxygen, 5% serum, vs untreated cells
Method: Scratch assay: This assay was used as an in vitro model of injury in rat aortic endothelial cells (RAECs). The effect of EPO on wound closure was investigated in either 21% or 1% O2. A reproducible scratch was produced in the endothelial monolayer and thereafter, either EPO (1 ng/mL) or saline (control) was added to the cells (in rat endothelial growth medium containing 5% serum) and subsequently incubated in 21% or 1% O2 for 24 hours. The defined area of the scratch was photographed under an inverted microscope (Olympus CKX41; Olympus Corporation, Tokyo, Japan) at lox magnification using a Micropix 5 megapixel colour complementary metal-oxide semiconductor digital camera (Olympus Cooperation). The position of the wound image was standardized each time against a horizontal line drawn on the base of the plate passing through the centre of each well. The scratch area was quantified using ImageJ software (National institutes of Health, Bethesda, Md., USA).
Scratch assay: Scratch assay was used as described in example 1. Cells where treated with DMOG (100 μM) and/or EPO (at 1 ng/mL). Cells incubated with medium containing 10% serum where used as positive control to reflect the maximum wound closure the cells could attain after 24 h. […]

[12] = 0-7.5 mg/Kg applied locally on carotid artery in pluronic gel
[13] = local application on carotid artery

## O=C(O)CNC(=O)c1nc(Cl)c2ccccc2c1O [BIQ, N-[(1-Chloro-4-hydroxy-3-isoquinolinyl)carbonyl]glycine]
[1]
  proliferation of smooth muscle cells: no effect
[2]
  proliferation of rat aortic endothelial cells: enhanced
  optimum concentration for enhancing proliferation of rat aortic endothelial cells: 100 µM

## COC(=O)CNC(=O)C(=O)OC [DMOG, dimethyloxalylglycine]
[3]
  % wound closure after 24 h: no significant different
[4]
  repair of the endothelial lining of rat carotid artery: significant effect
[5]
  HIF levels in cell lysates: increase
[6]; [12]
  HIF levels in plasma: concentration dependent effect
[6]; [13]
  optimal dose to cause an increase in HIF-1: 5 mg/kg
[7]; [12]
  gene expression of VEGF in carotid artery: concentration dependent effect
[7]; [13]
  optimal dose to cause an increase in VEGF: 5 mg/kg
[8]
  % wound closure after 24 h: no significant different
[9]
  HIF-1 levels in rat plasma: significantly increased
[10]
  gene expression of VEGF: increase
[1]
  proliferation of smooth muscle cells: no effect
[2]
  proliferation of rat aortic endothelial cells: enhanced
  optimum concentration for enhancing proliferation of rat aortic endothelial cells: 100 µM

## O=C(O)CNC(=O)c1c(O)c2ccccc2n(Cc2ccccc2)c1=O [IOX, N-[[1,2-Dihydro-4-hydroxy-2-oxo-1-(phenylmethyl)-3-quinolinyl]carbonyl]glycine]
[11]
  % wound closure after 24 h: no change
